# Experimental data: ChEMBL document CHEMBL3813616, “Discovery of novel 7-azaindoles as PDK1 inhibitors” (Bioorg Med Chem Lett, 2016)
# Columns and labels:
# [1] = molecular target: Dual specificity mitogen-activated protein kinase kinase 1 (Homo sapiens) (UniProt Q02750); experiment: Inhibition of human MKK1 (2 to 393 residues) assessed as enzyme activity at 1 uM using 33P ATP by radioactive filter binding assay; design: scale not given: the % may be the effect or the level left
# [2] = molecular target: Serine/threonine-protein kinase 26 (Homo sapiens) (UniProt Q9P289); experiment: Inhibition of human MST4 (1 to 416 residues) assessed as enzyme activity at 1 uM using 33P ATP by radioactive filter binding assay; design: scale not given: the % may be the effect or the level left
# [3] = molecular target: T1, Serine/threonine-protein kinase Nek2 (Homo sapiens) (UniProt P51955); experiment: Inhibition of human NEK2A (1 to 445 residues) assessed as enzyme activity at 1 uM using 33P ATP by radioactive filter binding assay; design: scale not given: the % may be the effect or the level left
# T1 sequence (whole entry): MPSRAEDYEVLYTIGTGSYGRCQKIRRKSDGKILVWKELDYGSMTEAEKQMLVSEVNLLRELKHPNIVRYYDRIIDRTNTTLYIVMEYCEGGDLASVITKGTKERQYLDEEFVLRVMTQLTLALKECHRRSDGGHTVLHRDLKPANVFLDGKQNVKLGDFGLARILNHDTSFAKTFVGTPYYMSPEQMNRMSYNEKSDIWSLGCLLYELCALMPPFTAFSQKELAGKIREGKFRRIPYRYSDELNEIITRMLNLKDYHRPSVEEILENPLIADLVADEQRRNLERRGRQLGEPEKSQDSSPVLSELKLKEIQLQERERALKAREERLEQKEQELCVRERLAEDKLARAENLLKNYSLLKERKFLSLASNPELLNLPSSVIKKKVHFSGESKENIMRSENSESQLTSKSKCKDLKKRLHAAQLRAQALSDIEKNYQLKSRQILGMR
# [4] = molecular target: T2, Lymphokine-activated killer T-cell-originated protein kinase (Homo sapiens) (UniProt Q96KB5); experiment: Inhibition of human PBK (2 to 297 residues) assessed as enzyme activity at 1 uM using 33P ATP by radioactive filter binding assay; design: scale not given: the % may be the effect or the level left
# T2 sequence (whole entry): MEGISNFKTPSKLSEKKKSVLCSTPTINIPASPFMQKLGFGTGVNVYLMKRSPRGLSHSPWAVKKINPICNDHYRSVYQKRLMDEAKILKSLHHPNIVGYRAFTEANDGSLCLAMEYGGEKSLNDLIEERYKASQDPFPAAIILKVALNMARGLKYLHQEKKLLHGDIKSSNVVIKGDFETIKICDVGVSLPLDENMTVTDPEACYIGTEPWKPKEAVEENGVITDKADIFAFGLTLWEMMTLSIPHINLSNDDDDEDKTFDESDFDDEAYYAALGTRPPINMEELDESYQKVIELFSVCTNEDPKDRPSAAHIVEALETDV
# [5] = molecular target: Phosphatidylinositol 4,5-bisphosphate 3-kinase catalytic subunit gamma isoform (Homo sapiens, UniProt P48736); experiment: Inhibition of PI3K gamma (unknown origin)
# [6] = molecular target: T3, Dual specificity tyrosine-phosphorylation-regulated kinase 3 (Homo sapiens) (UniProt O43781); experiment: Inhibition of human DYRK3 (1 to 588 residues) assessed as enzyme activity at 1 uM using 33P ATP by radioactive filter binding assay; design: scale not given: the % may be the effect or the level left
# T3 sequence (whole entry): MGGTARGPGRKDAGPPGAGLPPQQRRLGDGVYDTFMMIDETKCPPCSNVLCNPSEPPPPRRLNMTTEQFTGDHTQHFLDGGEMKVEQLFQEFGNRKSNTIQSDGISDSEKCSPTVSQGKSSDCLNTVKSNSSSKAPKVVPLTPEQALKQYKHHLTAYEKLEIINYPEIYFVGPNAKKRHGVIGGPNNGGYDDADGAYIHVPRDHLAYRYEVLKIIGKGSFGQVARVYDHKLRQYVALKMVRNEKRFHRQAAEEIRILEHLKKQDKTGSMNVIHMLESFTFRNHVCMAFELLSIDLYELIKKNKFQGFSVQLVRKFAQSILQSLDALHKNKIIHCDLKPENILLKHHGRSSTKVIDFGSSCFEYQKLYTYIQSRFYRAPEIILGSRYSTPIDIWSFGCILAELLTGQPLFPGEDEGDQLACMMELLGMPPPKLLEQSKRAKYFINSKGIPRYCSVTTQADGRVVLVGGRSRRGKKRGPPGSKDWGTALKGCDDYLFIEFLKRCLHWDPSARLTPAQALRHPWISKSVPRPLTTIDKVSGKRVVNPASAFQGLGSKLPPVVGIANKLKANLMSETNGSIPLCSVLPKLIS
# [7] = molecular target: T4, Eukaryotic elongation factor 2 kinase (Homo sapiens) (UniProt O00418); experiment: Inhibition of human EF2K (2 to 725 residues) assessed as enzyme activity at 1 uM using 33P ATP by radioactive filter binding assay; design: scale not given: the % may be the effect or the level left
# T4 sequence (whole entry): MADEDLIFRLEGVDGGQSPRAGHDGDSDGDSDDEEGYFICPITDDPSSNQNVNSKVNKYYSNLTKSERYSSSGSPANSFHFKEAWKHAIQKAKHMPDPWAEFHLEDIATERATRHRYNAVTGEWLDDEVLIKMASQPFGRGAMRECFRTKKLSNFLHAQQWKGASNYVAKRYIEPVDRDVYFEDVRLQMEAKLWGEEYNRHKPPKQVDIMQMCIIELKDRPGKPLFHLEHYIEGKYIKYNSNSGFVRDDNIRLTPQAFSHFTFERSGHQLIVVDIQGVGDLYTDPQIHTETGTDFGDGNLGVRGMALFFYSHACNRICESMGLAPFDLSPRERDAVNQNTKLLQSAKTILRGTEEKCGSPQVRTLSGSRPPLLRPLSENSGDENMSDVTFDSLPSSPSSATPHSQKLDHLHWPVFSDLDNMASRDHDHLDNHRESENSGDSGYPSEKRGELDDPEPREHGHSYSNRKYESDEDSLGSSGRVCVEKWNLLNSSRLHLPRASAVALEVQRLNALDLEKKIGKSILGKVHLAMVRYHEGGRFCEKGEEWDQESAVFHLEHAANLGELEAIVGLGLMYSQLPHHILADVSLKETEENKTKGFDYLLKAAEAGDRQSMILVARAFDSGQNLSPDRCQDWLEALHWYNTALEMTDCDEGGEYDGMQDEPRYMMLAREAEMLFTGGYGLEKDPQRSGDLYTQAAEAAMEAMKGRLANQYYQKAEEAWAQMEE
# Chain of Phosphatidylinositol 4,5-bisphosphate 3-kinase catalytic subunit gamma isoform (P48736 whole entry, the tested form may be a part, canonical isoform): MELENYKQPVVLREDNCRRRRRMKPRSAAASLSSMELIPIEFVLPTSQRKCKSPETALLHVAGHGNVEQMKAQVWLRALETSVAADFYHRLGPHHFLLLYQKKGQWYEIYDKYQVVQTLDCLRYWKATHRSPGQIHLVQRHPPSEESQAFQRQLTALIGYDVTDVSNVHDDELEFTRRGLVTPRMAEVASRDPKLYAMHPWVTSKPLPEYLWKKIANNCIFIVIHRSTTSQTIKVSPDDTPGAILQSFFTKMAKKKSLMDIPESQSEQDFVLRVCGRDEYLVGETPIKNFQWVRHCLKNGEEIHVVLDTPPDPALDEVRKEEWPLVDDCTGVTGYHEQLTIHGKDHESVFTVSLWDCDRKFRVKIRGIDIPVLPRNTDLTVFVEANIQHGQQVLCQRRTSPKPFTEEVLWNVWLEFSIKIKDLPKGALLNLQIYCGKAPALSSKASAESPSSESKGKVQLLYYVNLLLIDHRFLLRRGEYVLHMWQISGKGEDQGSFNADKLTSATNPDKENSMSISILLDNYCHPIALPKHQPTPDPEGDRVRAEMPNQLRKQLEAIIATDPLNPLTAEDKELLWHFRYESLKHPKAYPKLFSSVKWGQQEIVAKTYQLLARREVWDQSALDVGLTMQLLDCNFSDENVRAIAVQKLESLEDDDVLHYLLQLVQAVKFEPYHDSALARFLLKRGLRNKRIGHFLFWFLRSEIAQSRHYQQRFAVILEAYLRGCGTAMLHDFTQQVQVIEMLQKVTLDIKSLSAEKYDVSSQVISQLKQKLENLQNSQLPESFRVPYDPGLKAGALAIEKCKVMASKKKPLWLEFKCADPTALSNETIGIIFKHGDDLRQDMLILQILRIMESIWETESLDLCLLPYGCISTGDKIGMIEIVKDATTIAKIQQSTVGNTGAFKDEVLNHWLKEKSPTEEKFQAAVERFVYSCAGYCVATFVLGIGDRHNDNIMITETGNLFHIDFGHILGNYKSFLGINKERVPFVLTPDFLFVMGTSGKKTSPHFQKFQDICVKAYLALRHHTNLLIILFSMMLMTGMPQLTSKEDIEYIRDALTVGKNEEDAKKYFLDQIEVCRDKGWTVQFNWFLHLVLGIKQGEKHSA
# Chain of Serine/threonine-protein kinase 26 (Homo sapiens) (Q9P289 2-416 limits assumed): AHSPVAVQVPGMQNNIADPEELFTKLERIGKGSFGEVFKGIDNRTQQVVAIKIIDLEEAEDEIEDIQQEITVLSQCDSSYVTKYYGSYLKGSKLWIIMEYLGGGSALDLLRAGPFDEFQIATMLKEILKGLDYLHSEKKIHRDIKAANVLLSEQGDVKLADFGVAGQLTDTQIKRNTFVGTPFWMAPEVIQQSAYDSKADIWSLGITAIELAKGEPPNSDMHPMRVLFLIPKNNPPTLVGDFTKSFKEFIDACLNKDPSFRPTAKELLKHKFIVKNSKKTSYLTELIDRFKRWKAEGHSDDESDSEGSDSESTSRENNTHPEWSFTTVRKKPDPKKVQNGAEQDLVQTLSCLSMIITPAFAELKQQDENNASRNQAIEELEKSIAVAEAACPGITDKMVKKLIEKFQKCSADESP
# Chain of Dual specificity mitogen-activated protein kinase kinase 1 (Homo sapiens) (Q02750 whole entry, the tested form may be a part): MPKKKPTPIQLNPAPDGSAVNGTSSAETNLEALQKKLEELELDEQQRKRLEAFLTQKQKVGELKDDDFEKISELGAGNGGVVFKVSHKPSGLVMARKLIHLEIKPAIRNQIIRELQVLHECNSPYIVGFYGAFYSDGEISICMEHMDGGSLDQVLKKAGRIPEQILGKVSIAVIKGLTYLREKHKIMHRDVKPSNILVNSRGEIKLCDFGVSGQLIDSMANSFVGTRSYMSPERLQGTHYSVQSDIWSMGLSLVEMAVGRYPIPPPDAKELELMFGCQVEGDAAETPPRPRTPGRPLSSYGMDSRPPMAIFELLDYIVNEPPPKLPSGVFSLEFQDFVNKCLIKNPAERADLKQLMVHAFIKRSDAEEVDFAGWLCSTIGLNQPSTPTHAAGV
Activity [1] [%],Activity [2] [%],Activity [3] [%],IC50 [5] [µM],Activity [6] [%],Activity [7] [%],Compound,Activity [4] [%]
-21,-4,2,> 10,-80,-1,CCCCc1cc(-c2c[nH]c3ncccc23)nc(N)n1,-21
-82,-40,-89,–,-84,-31,CCCCc1cc(-c2c[nH]c3ncc(-c4cnn(C5CCNCC5)c4)cc23)nc(N)n1,-96
-77,-49,-58,> 10,-87,3,CCc1cc(-c2c[nH]c3ncc(-c4cnn(C5CCNCC5)c4)cc23)nc(N)n1,-95
-67,-9,-4,> 10,-82,-20,Nc1nccc(-c2c[nH]c3ncccc23)n1 [MERIOLIN 1],-40
